Results taken from patent US11103532B2, “Chimeric protein” (AUTOLUS LIMITED, priority 2015, dated 2021).

Tested on: T-cells
Experiment: Deletion of chimeric protein-expressing T-cells with Rapamycin (Annexin-V/7AAD flow cytometry)
Type: cell-based
Details: 48 hours; for deletion of transduced T-cells: different concentrations of Rapamycin, live cells expressing fluorescent proteins; for deletion of T-cells expressing both eGFP and eBFP2: lowest concentration of Rapamycin, co-transduced pair
Description: T-cells were either transduced with eGFP alone (FIG. 2a), or co-transduced with FKBP12-dCasp9 (co-expressing eGFP) and FRB-dCasp9 (co-expressing eBFP2) (FIG. 2b). T-cells were intentionally only partially transduced so that the non-transduced T-cells would act as internal controls. […] After 48 hours, cells were stained with Annexin-V and 7AAD and analysed by flow cytometry looking at the proportion of live cells which were expressing fluorescent proteins.
FIG. 3—Function of RapCasp9 variants. T-cells were transduced with (a) eGFP alone; (b) double transduced with FKBP12-Casp9 and FRB-Casp9 co-expressed with eGFP and eBFP2 respectively; (c) transduced with FRB-FKBP12-Casp9 and (d) transduced with FRB-Casp9-FKBP12 and (e) FBP12-Casp9-2A-FRB-FRBw. Only a proportion of cells were transduced, the negative cells acted as an internal negative control. […] T-cells were then stained with Annexin-V and 7AAD and analysed by flow-cytometry. eGFP vs eBFP2 is shown on live cells as determined by Annexin-V and 7AAD staining.
T-cells were transduced with the different constructs. For the two-molecule rapCasp9 (FIG. 1a), T-cells were transduced with two vectors: one coding for FKBP12-Casp9 co-expressed with the green fluorescent protein eGFP by means of an internal ribosome entry sequence, and the other coding for FRB-Casp9 co-expressed with the blue fluorescent protein eBFP2. For the one molecule rapCasp9 (FIG. 1b), T-cells were transduced with just one vector coding for the respective rapCasp9 which are co-expressed eGFP. A construct which provided FKB12-Casp9 and FRB-FRBw was encoded in a tri-cistronic cassette whereby the FKBP12-Casp9 and FRB-FRBw were co-expressed using a FMD-2A like peptide and eGFP was co-expressed with an IRES. The T-cells were intentionally only partially transduced so within the cell culture a proportion of cells remained non-transduced to act as an internal negative control.
Following this, T-cells were stained with Annexin-V and 7AAD and analysed by flow-cytometry. By gating on the live cells, and interrogating the population of cells expressing fluorescent proteins, survival of the transduced and non-transduced populations could be clearly measured.

Row | Molecule | deletion of transduced T-cells | deletion of T-cells expressing both eGFP and eBFP2
1 | FKBP12-Casp9/FRB-FRBw: Caspase 9 catalytic domain fused to FKBP12, co-expressed with a fusion of two copies of FRB | effective deletion of single positive cells | 
2 | FKBP12-Casp9: catalytic domain of Casp9 fused with FKBP12; tested co-expressed with FRB-Casp9 | effective deletion of only double positive cells | very effectively deleted
3 | FKBP12-FRB-Casp9: single construct where FKBP12 and FRB are fused together and then fused to the catalytic domain of Casp9 by a flexible linker | effective deletion of single positive cells | 
4 | FRB-Casp9: catalytic domain of Casp9 fused with FRB; tested co-expressed with FKBP12-Casp9 (protein, Chimeric protein FRB-dCasp9) MASRILWHEMWHEGLEEASRLYFGERNVKGMFEVLEPLHAMMERGPQTLKETSFNQAYGRDLMEAQEWCRKYMKSGNVKDLLQAWDLYYHVFRRISKLEYSGGGSGVDGFGDVGALESLRGNADLAYILSMEPCGHCLIINNVNFCRESGLRTRTGSNIDCEKLRRRFSSLHFMVEVKGDLTAKKMVLALLELAQQDHGALDCCVVVILSHGCQASHLQFPGAVYGTDGCPVSVEKIVNIFNGTSCPSLGGKPKLFFIQACGGEQKDHGFEVASTSPEDESPGSNPEPDATPFQEGLRTFDQLDAISSLPTPSDIFVSYSTFPGFVSWRDPKSGSWYVETLDDIFEQWAHSEDLQSLLLRVANAVSVKGIYKQMPGCFNFLRKKLFFKTSAS | effective deletion of only double positive cells | very effectively deleted
